Format in all cases: cell-based
One test deals with S. epidermidis MRSE 70. Nature of the test: MIC, broth dilution antimicrobial susceptibility testing (CLSI). The settings on record: for MIC: Staphylococcus epidermidis, MRSE, pathogens for nasal colonization, read-out: Minimum Inhibitory Concentration (MIC) S. epidermidis MRSE 70. Here is the method: (§1) Antimicrobial susceptibility testing was performed in accordance with the Clinical and Laboratory Standards Institute (CLSI).
(§2) Clinical and Laboratory Standards Institute (CLSI; formerly NCCLS): Methods for Dilution Antimicrobial Susceptibility Tests for Bacteria That Grow Aerobically; Approved Standard—Seventh Edition (2006). Clinical and Laboratory Standards Institute document M7-A7.
For orientation: In broth dilution the organism is exposed to a series of concentrations in liquid medium.

In the next test the test system is S. aureus ATCC 25923. The test is described as above. Particulars: Staphylococcus aureus, ATCC25923. Here is the method: as §1, §2
A further test deals with S. aureus MRSA 39. Described as above. The settings on record: for MIC: Staphylococcus aureus, MRSA, pathogens for nasal colonization, read-out: Minimum Inhibitory Concentration (MIC) S. aureus MRSA 39. As for the experimental part: as §1, §2
The test system of a further test is S. aureus MRSA 101. Described as above. The settings on record: for MIC: Staphylococcus aureus, MRSA, pathogens for nasal colonization, read-out: Minimum Inhibitory Concentration (MIC) S. aureus MRSA 101; for Minimum Inhibitory Concentration (MIC) S. aureus MRSA 101: pathogens for ocular infections. Here is the method: as §1, §2
The subject of the next test is E. faecalis VanB E80-8. The test is described as above. Particulars: for MIC: Enterococcus faecalis, VANBE808, pathogens for skin infections, read-out: Minimum Inhibitory Concentration (MIC) E. faecalis VanB E80-8; for Minimum Inhibitory Concentration (MIC) E. faecalis VanB E80-8: pathogens for gastro-intestinal infections. As for the experimental part: as §1, §2
The test system of a further test is B. distasonis 5770. Nature of the test: MIC, anaerobic bacteria, microbroth dilutions in Wilkins Chalgren Broth. The settings on record: Parabacteroides distasonis, pathogens for gastro-intestinal infections, read-out: Minimum Inhibitory Concentration (MIC) B. distasonis 5770. Here is the method:
(§3) Antimicrobial susceptibility testing was performed in accordance with the Clinical and Laboratory Standards Institute (CLSI). Streptococci (S. pneumoniae, S. pyogenes, S. viridans) were tested following the CLSI methodology with the exception that Todd Hewitt Broth without blood was used. Anaerobic bacteria (P. acnes, B. distasonis) were tested following CLSI (formerly NCCLS) guidelines except for using microbroth dilutions in Wilkins Chalgren Broth. National Committee for Clinical Laboratory Standards (NCCLS). Methods for Anti-microbial Susceptibility Testing of Anaerobic Bacteria; Approved Standard—Sixth Edition (2004). NCCLS document M11-A6.

A further test concerns P. acnes 6390. Described as above. Particulars: Cutibacterium acnes, pathogens for skin infections, read-out: Minimum Inhibitory Concentration (MIC) P. acnes 6390. As for the experimental part:
as §3

The test system of a further test is S. pneumoniae 1/1. Description: MIC, CLSI methodology with Todd Hewitt Broth without blood. Particulars: Streptococcus pneumoniae, pathogens for ocular infections, read-out: Minimum Inhibitory Concentration (MIC) S. pneumoniae 1/1. As for the experimental part: as §3, with “(CLSI). Clinical and Laboratory Standards Institute (CLSI; formerly NCCLS): Methods for Dilution Antimicrobial Susceptibility Tests for Bacteria That Grow Aerobically; Approved Standard—Seventh Edition (2006). Clinical and Laboratory Standards Institute document M7-A7.” for “(CLSI).”

The next test deals with S. pyogenes GAS-1. Described as above. Particulars: for MIC: Streptococcus pyogenes, GAS1, pathogens for ocular infections, read-out: Minimum Inhibitory Concentration (MIC) S. pyogenes GAS-1; for Minimum Inhibitory Concentration (MIC) S. pyogenes GAS-1: pathogens for skin infections. Here is the method:
as §3, with “(CLSI). Clinical and Laboratory Standards Institute (CLSI; formerly NCCLS): Methods for Dilution Antimicrobial Susceptibility Tests for Bacteria That Grow Aerobically; Approved Standard—Seventh Edition (2006). Clinical and Laboratory Standards Institute document M7-A7.” for “(CLSI).”

The next test relates to S. viridans UHC 7. Described as above. The settings on record: Streptococcus viridans, UHC7; pathogens for dental infections; read-out: Minimum Inhibitory Concentration (MIC) S. viridans UHC 7. Here is the method:
as §3, with “(CLSI). Clinical and Laboratory Standards Institute (CLSI; formerly NCCLS): Methods for Dilution Antimicrobial Susceptibility Tests for Bacteria That Grow Aerobically; Approved Standard—Seventh Edition (2006). Clinical and Laboratory Standards Institute document M7-A7.” for “(CLSI).”

[1] abbreviates: pathogens for ocular infections.
The mark [2] stands for this setting: pathogens for nasal colonization, read-out: Minimum Inhibitory Concentration (MIC) S. aureus ATCC 25923.
Setting [3] is: pathogens for ocular infections, read-out: Minimum Inhibitory Concentration (MIC) S. aureus 25923.

Each structure is given as a SMILES string. In brackets after ≈: the same amount, converted by molar mass. Like-named read-outs stand apart in the source and are kept apart here.

The record followed here is patent US7696249B2, “Diphenyl urea derivatives” (ARPIDA AG, priority 2005, dated 2010).

`O=C(Nc1cc(F)cc(C(F)(F)F)c1)Nc1ccc(Br)c(C(F)(F)F)c1` [Example 2, 1-(3-Fluoro-5-trifluoromethyl-phenyl)-3-(4-bromo-3-trifluoromethyl-phenyl)-urea]: the MIC with S. epidermidis MRSE 70 stood at 0.5 µg/mL (≈ 1.12 µM); in the test on S. aureus ATCC 25923 (setting [2]), 0.125 µg/mL (≈ 0.281 µM); in the test with S. aureus ATCC 25923 (setting [3]), 0.125 µg/mL (≈ 0.281 µM); with S. aureus MRSA 39 it was 0.125 µg/mL (≈ 0.281 µM); in the test on S. aureus MRSA 101 it was 0.25 µg/mL (≈ 0.562 µM); in the test with E. faecalis VanB E80-8, 1 µg/mL (≈ 2.25 µM). Besides, the MIC in the test on B. distasonis 5770 is 0.25 µg/mL (≈ 0.562 µM); with P. acnes 6390, ≤ 0.03 µg/mL; in the test on S. pneumoniae 1/1, ≤ 0.03 µg/mL; in the test with S. pyogenes GAS-1, 0.06 µg/mL (≈ 0.135 µM); with S. viridans UHC 7 it was 0.5 µg/mL (≈ 1.12 µM). Besides, the “Minimum Inhibitory Concentration (MIC) S. epidermidis MRSE 70” value in the test with S. epidermidis MRSE 70 (setting [1]) and with S. epidermidis MRSE 70 (pathogens for skin infections) was 0.5 micrograms/ml each time. The “Minimum Inhibitory Concentration (MIC) S. aureus MRSA 39” value in the test on S. aureus MRSA 39 (setting [1]) and in the test with S. aureus MRSA 39 (pathogens for skin infections) was 0.125 micrograms/ml throughout. Moreover, the “Minimum Inhibitory Concentration (MIC) S. aureus MRSA 101” value in the test with S. aureus MRSA 101 came out at 0.25 micrograms/ml. Besides, the “Minimum Inhibitory Concentration (MIC) E. faecalis VanB E80-8” value in the test with E. faecalis VanB E80-8 came out at 1 micrograms/ml. Besides, the “Minimum Inhibitory Concentration (MIC) S. pyogenes GAS-1” value with S. pyogenes GAS-1 is listed as 0.06 micrograms/ml.

As for `Fc1cc(NC(=S)Nc2ccc(Cl)c(C(F)(F)F)c2)cc(C(F)(F)F)c1` [Example 3, 1-(3-Fluoro-5-trifluoromethyl-phenyl)-3-(4-chloro-3-trifluoromethyl-phenyl)-thiourea], the MIC amounted to 0.25 µg/mL (≈ 0.6 µM) in the test on S. epidermidis MRSE 70; 0.25 µg/mL (≈ 0.6 µM) in the test with S. aureus ATCC 25923 (setting [2]); 0.25 µg/mL (≈ 0.6 µM) in the test on S. aureus ATCC 25923 (setting [3]); 0.25 µg/mL (≈ 0.6 µM) with S. aureus MRSA 39; 0.25 µg/mL (≈ 0.6 µM) in the test on S. aureus MRSA 101; 2 µg/mL (≈ 4.8 µM) with E. faecalis VanB E80-8. Further, the MIC in the test on B. distasonis 5770 was 0.5 µg/mL (≈ 1.2 µM); in the test with P. acnes 6390 it was ≤ 0.03 µg/mL; in the test with S. pneumoniae 1/1 it was 0.5 µg/mL (≈ 1.2 µM); in the test on S. pyogenes GAS-1, 0.5 µg/mL (≈ 1.2 µM); with S. viridans UHC 7, 2 µg/mL (≈ 4.8 µM). The “Minimum Inhibitory Concentration (MIC) S. epidermidis MRSE 70” value in the test on S. epidermidis MRSE 70 (setting [1]) and with S. epidermidis MRSE 70 (pathogens for skin infections) was 0.25 micrograms/ml in each case. For the same compound, the “Minimum Inhibitory Concentration (MIC) S. aureus MRSA 39” value in the test with S. aureus MRSA 39 (setting [1]) and with S. aureus MRSA 39 (pathogens for skin infections) was 0.25 micrograms/ml throughout. The “Minimum Inhibitory Concentration (MIC) S. aureus MRSA 101” value in the test with S. aureus MRSA 101 was determined as 0.25 micrograms/ml. In addition, the “Minimum Inhibitory Concentration (MIC) E. faecalis VanB E80-8” value in the test with E. faecalis VanB E80-8 is given as 2 micrograms/ml. Further, the “Minimum Inhibitory Concentration (MIC) S. pyogenes GAS-1” value in the test with S. pyogenes GAS-1 is listed as 0.5 micrograms/ml.

Turning to `O=C(Nc1cc(F)cc(C(F)(F)F)c1)Nc1ccc(Cl)c(C(F)(F)F)c1` [Example 1, 1-(3-Fluoro-5-trifluoromethyl-phenyl)-3-(4-chloro-3-trifluoromethyl-phenyl)-urea], the MIC with S. epidermidis MRSE 70 is 0.25 µg/mL (≈ 0.624 µM); in the test with S. aureus ATCC 25923 (setting [2]) it was 0.125 µg/mL (≈ 0.312 µM); with S. aureus ATCC 25923 (setting [3]) it was 0.125 µg/mL (≈ 0.312 µM); in the test on S. aureus MRSA 39, 0.125 µg/mL (≈ 0.312 µM); with S. aureus MRSA 101, 0.125 µg/mL (≈ 0.312 µM); in the test with E. faecalis VanB E80-8, 1 µg/mL (≈ 2.5 µM). Also, the MIC in the test with B. distasonis 5770 is 0.25 µg/mL (≈ 0.624 µM); with P. acnes 6390, ≤ 0.03 µg/mL; with S. pneumoniae 1/1, 0.06 µg/mL (≈ 0.15 µM); with S. pyogenes GAS-1, 0.125 µg/mL (≈ 0.312 µM); in the test with S. viridans UHC 7, 0.5 µg/mL (≈ 1.25 µM). Further, the “Minimum Inhibitory Concentration (MIC) S. epidermidis MRSE 70” value in the test with S. epidermidis MRSE 70 (setting [1]) and in the test on S. epidermidis MRSE 70 (pathogens for skin infections) was 0.25 micrograms/ml each time. The “Minimum Inhibitory Concentration (MIC) S. aureus MRSA 39” value in the test with S. aureus MRSA 39 (setting [1]) and in the test on S. aureus MRSA 39 (pathogens for skin infections) was 0.125 micrograms/ml each time. Also, the “Minimum Inhibitory Concentration (MIC) S. aureus MRSA 101” value in the test on S. aureus MRSA 101 is recorded as 0.125 micrograms/ml. Also, the “Minimum Inhibitory Concentration (MIC) E. faecalis VanB E80-8” value with E. faecalis VanB E80-8 was determined as 1 micrograms/ml. Besides, the “Minimum Inhibitory Concentration (MIC) S. pyogenes GAS-1” value with S. pyogenes GAS-1 was 0.125 micrograms/ml.
